A short description of series [1]: Stability in mouse serum. It counts as in vitro ADME. Conditions: 11.1 μM peptide, fresh nonsterile mouse serum (200 μl serum + 25 μl peptide solution, pH 7.5 buffer with 10% DMSO), 37 °C, quench 15% TCA in acetonitrile, HPLC, n = 3; read-out: Half-life (hours), mouse serum (converted). How it is done: (§1) Figure 4. Biophysical analysis of stapled peptides. A, amino acid sequence alignment of the targeted TM regions and disrupting peptides. Cys residues are in the reduced state. Blue bridges indicate the stapled amino acid residues. […] Yields, purity, and MALDI-TOF data are shown for the stapled peptides and negative control. B, CD analysis of 30–50 μM peptides at 20 °C. For proteolytic stability studies, the peptide solution (55.5 μM for trypsin and chymotrypsin and 11.1 μM for serum) was incubated in the presence of 0.55 μg/ml trypsin from porcine pancreas (E), α-chymotrypsin (F), or mouse serum (G) at 37 °C for the indicated times (indicated on the x axis). Data are mean ± S.E. (error bars) (n = 3) percentage of intact peptide normalized to t = 0. Proteolytic half-lives and putative cleavage sites (predicted using the Expasy bioinformatics server's model with a 50% probability of cleavage) are indicated at the bottom of each panel. Positive correlation between helicity and half-life in trypsin/chymotrypsin (C) or serum (D) was determined by two-tailed Pearson's correlation test. TEXT PRINTED IN THE PICTURE: (B) TM7-TAT: Ellipticity (%): 3.4 | (B) TM6-TAT: Ellipticity (%): 18.3 | (B) TM5-TAT: Ellipticity (%): 20.9 | (B) 8: Ellipticity (%): 58.3 | (B) 9: Ellipticity (%): 46.4 | (B) 10: Ellipticity (%): 36.8 | (B) 11: Ellipticity (%): 46 | (E) TM7-TAT: Half-life (min): 21; #Cleavage sites: 8 | (E) TM6-TAT: Half-life (min): 40; #Cleavage sites: 7 | (E) TM5-TAT: Half-life (min): 33; #Cleavage sites: 8 | (E) 8: Half-life (min): 307; #Cleavage sites: 0 | (E) 9: Half-life (min): 178; #Cleavage sites: 0 | (E) 10: Half-life (min): 75; #Cleavage sites: 6 | (E) 11: Half-life (min): 84; #Cleavage sites: 0 | (F) TM7-TAT: Half-life (min): 22; #Cleavage sites: 6 | (F) TM6-TAT: Half-life (min): 32; #Cleavage sites: 7 | (F) TM5-TAT: Half-life (min): 28; #Cleavage sites: 7 | (F) 8: Half-life (min): 425; #Cleavage sites: 4 | (F) 9: Half-life (min): 198; #Cleavage sites: 3 | (F) 10: Half-life (min): 63; #Cleavage sites: 2 | (F) 11: Half-life (min): 79; #Cleavage sites: 4 | (G) TM7-TAT: Half-life (hours): 0.46 | (G) TM6-TAT: Half-life (hours): 0.55 | (G) TM5-TAT: Half-life (hours): 0.81 | (G) 8: Half-life (hours): ≥18 | (G) 9: Half-life (hours): 14.7 | (G) 10: Half-life (hours): 11.7 | (G) 11: Half-life (hours): 5.3 DOUBTS OF THE COPYIST ABOUT THIS PICTURE: Panel A table (Yield, Rt, Purity, [M+H+] calc., [M+H+] Peak Found for 7-11) left out as synthesis and mass-spectrum characterisation data; uncertain whether [M+H+] calc. should count as a molecular weight
(§2) Dose–response curves were fitted using a four-parameter logistic nonlinear regression mode. Peptide stability data were fitted using a nonlinear regression mode for dissociation kinetics. All statistical tests, curve fitting, and graphing were performed using GraphPad Prism 8 (GraphPad Software, La Jolla, CA).
To 200 μl of fresh nonsterile mouse serum was added 25 μl of peptide solution (100 μM, dissolved in ammonium bicarbonate buffer, pH 7.5, containing 10% DMSO), and the mixture was incubated at 37 °C. At the specified time, an aliquot of incubation mixture was withdrawn and quenched by the addition of an equal volume of 15% TCA in acetonitrile to precipitate out serum proteins over ice for 30 min. The mixture was then centrifuged at 13,500 rpm for 10 min, and the supernatant was collected and analyzed by HPLC in a similar manner as described previously. The experiment was repeated twice on different days.

For series [2], the target named is T1, α-chymotrypsin from bovine pancreas (Bos taurus, UniProt P00766, DEL14-15/DEL147-148).
T1 construct: purchased Sigma Type II; host or cells: bovine pancreas
The series is described as follows: Proteolytic stability against chymotrypsin. It counts as in vitro ADME. Conditions: cattle, isolated enzyme chymotrypsin; 55.5 μM peptide, 0.55 μg/ml α-chymotrypsin from bovine pancreas, ammonium bicarbonate buffer pH 7.5, 37 °C, 15–480 min, intact peptide by RP-HPLC, n = 3, nonlinear regression fit; read-out: Half-life (min), α-chymotrypsin. How it is done: as §1, §2
To 100 μl of peptide solution (100 μM, dissolved in ammonium bicarbonate buffer, pH 7.5), 60 μl of ammonium bicarbonate buffer (pH 7.5) was added, together with 20 μl of temperature-equilibrated (37 ± 1 °C) α-chymotrypsin (5 μg/ml) from bovine pancreas (Sigma, Type II, activity > 40 units/mg protein). Peptides were incubated for 15, 30, 60, 120, 240, and 480 min, and then MeOH (HPLC grade) + 0.05% TFA was added. The samples were then centrifuged (15,000 rpm), and supernatant was analyzed in a similar manner as described above. The experiment was repeated twice on different days.

The target in series [3] is T2, trypsin from porcine pancreas (Sus scrofa, UniProt P00761).
T2 construct: purchased Sigma; host or cells: porcine pancreas
T2 sequence (P00761 9-231): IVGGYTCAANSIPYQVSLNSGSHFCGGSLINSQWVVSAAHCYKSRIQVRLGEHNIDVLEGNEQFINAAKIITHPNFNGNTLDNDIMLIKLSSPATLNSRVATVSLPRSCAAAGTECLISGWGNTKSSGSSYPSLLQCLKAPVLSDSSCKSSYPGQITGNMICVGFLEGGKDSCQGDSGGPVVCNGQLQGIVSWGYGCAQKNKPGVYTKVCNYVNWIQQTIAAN
The series is described as follows: Proteolytic stability against trypsin. It counts as in vitro ADME. The note with it: pig, isolated enzyme trypsin; 55.5 μM peptide, 0.55 μg/ml trypsin from porcine pancreas, ammonium bicarbonate buffer pH 7.5, 37 °C, 15–480 min, intact peptide by RP-HPLC (Fmoc-Gly internal standard), n = 3, nonlinear regression fit; read-out: Half-life (min), trypsin. Here is the method: as §1, §2
To 100 μl of peptide solution (100 μM, dissolved in ammonium bicarbonate buffer, pH 7.5), 60 μl of ammonium bicarbonate buffer (pH 7.5) was added, together with 20 μl of temperature-equilibrated (37 ± 1 °C) trypsin (5 μg/ml) from porcine pancreas (Sigma, 13,000–20,000 BAEE units/mg of protein). Peptides were incubated for 15, 30, 60, 120, 240, and 480 min, and then MeOH (HPLC Grade) + 0.05% TFA was added. The samples were then centrifuged (15,000 rpm), and the supernatant was analyzed, using Fmoc-Gly (10 μl, 0.2 mM) as an internal standard. The digestion at each time point was repeated three times to give the average values along with S.D. The amount of intact peptide that remained in the mixture was quantified by RP-HPLC. The experiment was repeated twice on different days.

In series [4] the test system is 5-HT2AR–CB1R heteromers. Further details: method as in 2 sources, ref 16 = [16]; PMID 26158621; doi:10.1371/journal.pbio.1002194; 16. Viñals X. , Moreno E. , Lanfumey L. , Cordomí A. , Pastor A. , de La Torre R. , Gasperini P. , Navarro G. , Howell L. A. , Pardo L. , Lluís C. , Canela E. I. , McCormick P. J. , Maldonado R. , and ||| ref 4, unpublished observations. Conditions: synthetic TM-mimicking peptides fused to HIV-TAT; cited from earlier work.

The target in series [5] is T3, 5-HT2AR N-terminally tagged with LgBiT or SmBiT, CMV promoter (human, UniProt P28223 1-471).
T3 construct: 5-hydroxytryptamine 2A receptor (5-HT2AR), human, cloned from the cDNA Resource Center plasmid; also called SmBiT–5-HT2AR; SmBiT 5-HT2AR; source: HEK293, transiently transfected (CMV promoter), live cells; not shown: LgBiT or SmBiT (one of the two on each copy; SmBiT in the peptide screen), N-terminal, kept
T3 sequence (P28223 whole entry): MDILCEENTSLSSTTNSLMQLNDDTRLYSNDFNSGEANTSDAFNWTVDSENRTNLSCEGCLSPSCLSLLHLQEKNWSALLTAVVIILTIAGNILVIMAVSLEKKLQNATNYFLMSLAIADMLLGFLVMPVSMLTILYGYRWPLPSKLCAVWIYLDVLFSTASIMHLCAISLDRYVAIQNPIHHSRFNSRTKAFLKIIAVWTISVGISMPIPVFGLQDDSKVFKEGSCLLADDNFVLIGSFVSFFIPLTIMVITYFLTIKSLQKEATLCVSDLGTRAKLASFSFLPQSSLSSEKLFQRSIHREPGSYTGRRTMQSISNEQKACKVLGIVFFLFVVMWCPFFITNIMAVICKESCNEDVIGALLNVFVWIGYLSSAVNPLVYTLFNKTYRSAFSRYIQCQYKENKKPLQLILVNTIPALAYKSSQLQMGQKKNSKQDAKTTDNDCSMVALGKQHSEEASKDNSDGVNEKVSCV
The series is described as follows: split reporter (BiFC, NanoBiT); NanoBiT orientation screens: LgBiT and SmBiT receptor fusions (C- or N-terminal, CMV promoter) transiently co-transfected in HEK293 cells at 50 or 100 ng of receptor/well, compared with each construct alone; live cells, 24 h post-transfection, furimazine substrate. The note with it: partners not purified.

Where a SMILES comes first, the peptide text is derived from it.

As for `CC[C@H](C)[C@H](NC(=O)[C@@H](NC(=O)[C@@H]1CCCN1C(=O)[C@H](CC(N)=O)NC(=O)[C@@H](NC(=O)[C@@H](NC(=O)[C@H](CO)NC(=O)[C@H](CC(N)=O)NC(=O)[C@H](CC(C)C)NC(=O)[C@H](CC(C)C)NC(=O)[C@H](CS)NC(=O)[C@H](CC(C)C)NC(=O)[C@H](CCSC)NC(=O)[C@H](CO)NC(=O)[C@H](CS)NC(=O)[C@H](Cc1ccccc1)NC(=O)[C@H](C)NC(=O)[C@H](Cc1ccccc1)NC(=O)[C@@H](NC(=O)[C@@H](NC(=O)[C@H](CCCCN)NC(=O)[C@@H](NC(=O)[C@@H](N)CC(C)C)[C@@H](C)CC)[C@@H](C)O)C(C)C)[C@@H](C)O)C(C)C)[C@@H](C)CC)C(=O)N[C@@H](Cc1ccc(O)cc1)C(=O)N[C@@H](C)C(=O)N[C@@H](CC(C)C)C(=O)N[C@@H](CCCNC(=N)N)C(=O)NCC(=O)N[C@@H](CCCNC(=N)N)C(=O)N[C@@H](CCCCN)C(=O)N[C@@H](CCCCN)C(=O)N[C@@H](CCCNC(=N)N)C(=O)N[C@@H](CCCNC(=N)N)C(=O)N[C@@H](CCC(N)=O)C(=O)N[C@@H](CCCNC(=N)N)C(=O)N[C@@H](CCCNC(=N)N)C(=O)N[C@@H](CCCNC(=N)N)C(=O)O` [TM7-TAT, reference compound] (H-LIKTVFAFCSMLCLLNSTVNPIIYALRGRKKRRQRRR-OH), in series [1], the half-life (in general, how long it takes for the measured level to halve) at 11.1 μM was 0.46 h. For the same molecule, the values for the half-life at 55.5 μM in series [2] and in series [3] were 22 min and 21 min, respectively. Further, the “disruption of 5-HT2AR–CB1R heteromers (previous studies)” value in series [4] was “did not disrupt the heteromer”.

B1: CB1R N-terminally tagged with LgBiT or SmBiT, CMV promoter (receptor, human, UniProt P21554 1-472, looked up)
chain: MKSILDGLADTTFRTITTDLLYVGSNDIQYEDIKGDMASKLGYFPQKFPLTSFRGSPFQEKMTAGDNPQLVPADQVNITEFYNKSLSSFKENEENIQCGENFMDIECFMVLNPSQQLAIAVLSLTLGTFTVLENLLVLCVILHSRSLRCRPSYHFIGSLAVADLLGSVIFVYSFIDFHVFHRKDSRNVFLFKLGGVTASFTASVGSLFLTAIDRYISIHRPLAYKRIVTRPKAVVAFCLMWTIAIVIAVLPLLGWNCEKLQSVCSDIFPHIDETYLMFWIGVTSVLLLFIVYAYMYILWKAHSHAVRMIQRGTQKSIIIHTSEDGKVQVTRPDQARMDIRLAKTLVLILVVLIICWGPLLAIMVYDVFGKMNKLIKTVFAFCSMLCLLNSTVNPIIYALRSKDLRHAFRSMFPSCEGTAQPLDNSMGDSDCLHKHANNAASVHRAAESCIKSTVKIAKVTMSVSTDTSAEAL
notes: cannabinoid receptor type 1 (CB1R), human, cloned from the cDNA Resource Center plasmid; also called LgBiT–CB1R; LgBT–CB1R; source: HEK293, transiently transfected (CMV promoter), live cells; not shown: LgBiT or SmBiT (one of the two on each copy; LgBiT in the peptide screen), N-terminal, kept
Consider B1, for which the “fold change of luminescence over the individual receptor construct” value in series [5] was about 200 fold.

The values above are taken from PMC6851324, “Design and development of stapled transmembrane peptides that disrupt the activity of G-protein–coupled receptor oligomers” (The Journal of Biological Chemistry, 2019).
